The results in this text go back to patent US20070129307A1, “Insulin epitopes for the treatment of type 1 diabetes” (The University of British Columbia, priority 2001, published 2007).

The target in test [1] is T1, HLA-A*0201 (Homo sapiens, UniProt P04439, D140Y/D185E/D98H/E176V/E277Q/G131W/G231S/I119V/I121R/I166T/I218V/L300P/L318F/N151K/N90K/P208A/P217A/Q86G/Q94H/R138H/R169H/T345S).
T1 construct: cell membrane stabilization of the HLA-A2 molecule in TAP-deficient 174×CEM.T2 cells; endogenous in cells; host or cells: 174×CEM.T2 (T2) cells, TAP-deficient
Briefly: Temporal stability (dissociation) of peptide/HLA-A*0201 complexes on T2 cells. It counts as binding. Particulars: in 4 hours at 37° C., T2 cells with emetine, normalized to CMV/HLA-A2. The method, then:
The stability of complexes formed with the peptides and HLA-A2 on T2 cells was assessed, over a 4-hour period at 37° C. After peptide removal and addition of emetine to inhibit protein synthesis, T2 cells were cultured at 37° C. and the HLA-A2 expression was determined at different incubation times using anti-HLA-A2 antibody. The stability of the various peptide/HLA-A2 complexes were then normalized relative to that observed for CMV/HLA-A2 complexes set as 100%.
The temporal stability of peptide/HLA-A*0201 complexes was assessed as previously described (Valmori, supra). Briefly, T2 cells were cultured with synthetic peptides overnight at room temperature as performed for peptide binding assay. The following day, after removing peptide and adding emetine (10^−4 M; Sigma-Aldrich, Oakville, Ontario, Canada) to block protein synthesis, cells were incubated at 37° C. for the indicated time periods. At each time point, an aliquot of cells was washed and stained with FITC-conjugated anti-HLA-A2 monoclonal antibody (BB7.2). Surface HLA-A2 expression was assessed by flow cytometry (FACSCalibur) and MFI was recorded. The CMV peptide was used as a positive control. Results are expressed as relative complex stability =100×[(MFI with given peptide—MFI without peptide)/(MFI with CMV peptide—MFI without peptide)].

Test [2] deals with HLA-A2 restricted CD8+ T cells (PBMC). Particulars: for T cell responses in diabetic patients and controls: non-diabetic and non-HLA matched controls.
The target of a further test is T2, H-2Kd (Mus musculus, UniProt P01902).
T2 construct: expressed in transfected cells; host or cells: RMAS (TAP-deficient murine cell line) transfected with H-2Kd
T2 sequence (P01902 22-368): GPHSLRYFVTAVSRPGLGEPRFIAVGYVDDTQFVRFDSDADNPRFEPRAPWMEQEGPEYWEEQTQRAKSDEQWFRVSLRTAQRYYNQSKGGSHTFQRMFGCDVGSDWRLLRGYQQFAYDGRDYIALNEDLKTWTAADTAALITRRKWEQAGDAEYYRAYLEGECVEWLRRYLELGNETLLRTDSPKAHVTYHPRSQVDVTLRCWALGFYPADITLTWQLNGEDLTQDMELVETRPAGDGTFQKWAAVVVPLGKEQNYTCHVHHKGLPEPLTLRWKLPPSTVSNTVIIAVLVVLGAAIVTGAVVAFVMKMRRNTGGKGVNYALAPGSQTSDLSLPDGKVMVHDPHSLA
T2 sequence (P01887 21-119 partner): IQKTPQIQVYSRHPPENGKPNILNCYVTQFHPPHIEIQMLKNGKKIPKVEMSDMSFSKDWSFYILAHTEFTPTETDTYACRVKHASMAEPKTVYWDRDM
Nature of the test: MHC class I stabilization assay on RMAS-Kd cells (FACS). It counts as binding. Conditions: background without peptide 6.07%. As for the experimental part:
A peptide (for example, TUM, V7, INSL, TV1, TV2, or TV3) is added and the cells are incubated at room temperature for 1 hour, and then incubated at 37° C. for 3 hours. The cells are washed 3 times with 0.3% bovine serum albumin-phosphate buffer solution (BSA-PBS), and then stained with fluorescently labelled anti-mouse H-2Kd-FITC antibody. Fluorescent-activated cell sorting (FACS) analysis is performed to count the percentage of cells showing positive staining.
FACS analysis was performed to quantify the percentage/proportion of antigen presenting cells (RMAS-Kd) that express stable MHC class I on their cell surface, in association with the TV1 peptide. RMAS-Kd is a transporter for antigen presentation (TAP)-deficient RMAS cell line transfected with the mouse MHC class I molecule, H-2Kd. Because the cell line is TAP deficient it cannot assemble MHC class I (in this case H-2Kd) complexes stably but requires surface stabilisation by exogenous peptides that can bind with the H-2Kd heavy chain and beta-2 microglobulin. The cell line was stained for MHC class I expression with or without TV1 peptide.

The subject of test [3] is murine autoreactive T cells (NOD spleen cells). Nature of the test: Interferon-gamma ELISPOT with NOD spleen cells. It counts as cell-based, mouse. An excerpt: The effector cells (CTL) of the ELISPOT assay are contained within spleen cells from NOD mice aged 10 weeks. The spleens from these mice contain a proportion of autoreactive CTL destined to destroy pancreatic beta cells.
The peptide NRP-V7 was used as a positive control and is a previously described synthetic autoepitope (automimotope) of NOD mice (Amrani et al., 2000). NRP-V7 was not derived from any endogenous mammalian protein sequence but was identified by screening combinatorial peptide libraries. The peptide TUM was used as a negative control. TUM is derived from an endogenous tumour peptide not known to participate in type 1 diabetes but known to bind to the MHC class I molecule, H-2Kd.

The next test concerns NOD mice. Nature of the test: Peptide immunisation of NOD mice, diabetes onset. It counts as in vivo, mouse. Conditions: by week 18; 100 μg peptide intraperitoneally from 3 weeks of age; diabetic = two consecutive blood sugars >15 mM. The method, then: Peptides are administered to female NOD mice in accordance with standard laboratory methods.
Three groups of NOD mice (n=10 per group, purchased from Taconic, Germantown, N.Y., U.S.A.) were immunised beginning at three weeks of age with 100 μg of TUM, NRP-A7, or TV1 (MTV-1) peptide in PBS solution, intraperitoneally once per week for two weeks, then once every two weeks. Mice were monitored for hyperglycaemia weekly and considered to be diabetic after two consecutive blood sugars >15 mM.

The subject of test [4] is human autoreactive T cells (PBMC). Nature of the test: Interferon gamma ELISPOT of PBMC from type 1 diabetes patients (Example 5). Conditions: 1 μM peptide, PBMC 20,000 per well, recent onset type 1 diabetes patients, FIG. 8. It counts as cell-based.
Test [5] has as its target T1, HLA-A*0201. Briefly: FACS assay of peptide binding to HLA-A2 on T2 cells (Example 6). Background: Flow cytometry measures light scatter and fluorescence of single cells or particles in a stream.
Test [6] concerns autoreactive T cells in NOD pancreatic islets. Briefly: Interferon-gamma ELISPOT with T cells of NOD pancreatic islets. Conditions: FIG. 5. It counts as cell-based, mouse.
Test [7] relates to CTL from pancreatic islets of NOD mice. Nature of the test: H-2Kd tetramer staining of NOD islet cells. It counts as cell-based, mouse. Conditions: H-2Kd tetramers, islet cells ex vivo or after in vitro culture, FIG. 12. The source says: MHC class I tetramers (for example, H-2Kd tetrameric complexes) are synthesised as previously described by Altman et al. (Science 274:94-96, 1996). MHC heavy chain, modified by the addition of a C-terminal biotinylation site, and beta 2 microglobulin are expressed separately in E. coli (BL21, Stratagene, La Jolla, Calif., U.S.A.). Peptides were synthesized synthesised on a Perkin-Elmer-ABI 431A by the NAPS Unit, University of British Columbia, BC, Canada. Purified heavy chain, beta 2 microglobulin and peptide are refolded at 4° C. for 48 hours in a TRIS-based buffer, and the refolded product is concentrated, biotinylated using BirA enzyme (Avidity, Denver, Colo., U.S.A.) in the presence of biotin, ATP and Mg++ and purified by FPLC. Streptavidin-phycoerythrin conjugate is added in a 1:4 molar ratio and the tetrameric product is concentrated to approximately 1 mg/ml. The tetramer concentration is calculated based upon the concentration of biotinylated protein, quantified by Bradford assay, prior to addition of streptavidin.
Single cell suspensions of lymphocytes are incubated with 1 μl of a 1 mg/ml solution of MHC tetramer for 2-3 hours at 4° C. in FACS staining buffer (HBSS/FBS 2%/Sodium Azide 0.01%/EDTA 100 mM). The cells are centrifuged and washed three times before staining with antibody to CD8. […]

Entries after “also recorded” stand apart in the source; their conditions may differ.

ALWMRLLPL [Insulin2]: in the test with HLA-A*0201 [1], the “dissociation of peptide/HLA-A2 complexes” value is given as “about 20%”. In addition, the “non-diabetic control subjects that responded” value in test [2] (second study) is listed as “three of the five”.

On to DLMGYIPLV [HCV, reference compound], for which the “subjects responding to the peptide” value in test [2] (first study, all subjects) is on record as “None of the subjects responded”.

With GMAELMAGL [Phogrin331], in the test with HLA-A*0201 [1], the “dissociation of peptide/HLA-A2 complexes” value was “about 20%”. In addition, the “T cell responses in diabetic patients and controls” value (from here on “T cell responses”) in test [2] (second study) was “could not be detected”.

On to KLPAVLLIL (mTV-1 peptide epitope) [TV1], for which the “proportion of H-2Kd on the surface of the APC in the presence of peptide” value (“proportion of H-2Kd” for short) with H-2Kd is 64%. Moreover, the “recognition by murine autoreactive T cells (interferon-gamma secretion)” value is given as “recognise” in [3] (FIG. 1) and “high frequency of CTL that recognise TV-1” in test [3] (FIG. 1, listed as TV-1). In addition, the “immunized mice considered diabetic” value in the test on NOD mice stood at 80%.

For “KLQVFLIVL (HTV-1 peptide epitope) [IAPP5]”, in [4], the “recognition by human autoreactive T cells (interferon-gamma ELISPOT)” value is recorded as “elevated HTV1 autoreactivity; also recorded: recognise”. Also, the “binding to HLA-A2” value with HLA-A*0201 [5] (FIG. 11, listed as HTV 1) is listed as “bind to HLA-A2”; in the test with HLA-A*0201 [5] (FIG. 11, listed as HTV1), “binds”.

Turning to KYNKANVFL [NRP-V7, positive control], the results for the “proportion of H-2Kd” value in the test with H-2Kd and in the test with H-2Kd (listed as V7) were 72% and 72.71%, respectively. For the same substance, the “recognition by murine autoreactive T cells (interferon-gamma secretion)” value in test [3] (FIG. 1) is given as “Interferon-gamma is also secreted; also recorded: recognise”. The “interferon-gamma secretion by autoreactive T cells in NOD pancreatic islets” value in test [6] is “secrete interferon-gamma”.

Take “KYPAVLLIL (modified version of precursor peptide TV1 (TV2))”: the “proportion of H-2Kd” value in the test with H-2Kd is 58%. Besides, the “recognition by CD8+ T cells (tetramer staining)” value in [7] was “recognize”.

With LLPPLLEHL [IA-2(180)], in [2] (second study), the “T cell responses” value was “could not be detected”.

Regarding LYLVCGERG [INSL], the figures for the “proportion of H-2Kd” value in the test with H-2Kd and with H-2Kd (listed as INS-L) were 73.68% and 73%, respectively. Also, in [6], the “interferon-gamma secretion by autoreactive T cells in NOD pancreatic islets” value is listed as “minimally”.

For “NRP-A7: positive control peptide; known synthetic peptide autoantigen recognized in the context of H-2Kd (KYNKANAFL; NRP-A7 peptide)”, the “immunized mice considered diabetic” value with NOD mice was 20%.

On to RLLCALTSL [IGRP293], for which the “dissociation of peptide/HLA-A2 complexes” value with HLA-A*0201 [1] is “about 20%”. Moreover, the “T cell responses” value in [2] (second study) is reported as “could not be detected”.

Consider “RLLPLLALL (mouse insulin derived peptide) [TV3]”, for which, in the test with H-2Kd, the “proportion of H-2Kd” value turned out to be 70%.

Turning to “TUM: negative control; derived from an endogenous tumour peptide, known to bind H-2Kd (KYQAVTTTL)”, the “proportion of H-2Kd” value with H-2Kd stood at 66%. For the same substance, the “immunized mice considered diabetic” value in the test with NOD mice is given as “none”.
